Experimental data: patent publication US11576913B2 (priority 2018, dated 2023)
Entries after “also recorded” stand apart in the source; their conditions may differ.

Assays:
[1] = test system: healthy, non-dependent, recreational sedative users; test: Human abuse potential study, Drug Liking VAS; type: in vivo; settings: for Drug Liking VAS - EMAX LSMean: N = 50, 100 point bipolar scale
Experimental: This study was designed as a randomized, single-dose, double-blinded, double dummy, crossover study. The study population was healthy, nondependent recreational polydrug users with a history of Central Nervous System (CNS) depressant use.
Subjects were screened no more than 28 days before check-in of period 1. Study drug was administered in each period according to the study randomization schedule. During Qualification, there was a minimum 24 hour washout period between each study drug administration. During the Treatment phase, there was a minimum 48-hour washout period between each study drug administration. Subjects were confined to the unit the day prior to, and for at least approximately 24 hours following, study drug administration during each period. If subjects were discharged between treatment periods, subjects returned to the unit the day prior to dosing.
The Qualification Phase was designed to ensure that polydrug abusing subjects with self-reported recreational CNS depressant/sedative drug experience were able to tolerate and discriminate between orally administered triazolam tablets and placebo as well as to report positive subjective effects of the drug in a controlled laboratory setting. This phase was also used to exclude “placebo responders”, i.e., subjects who report subjective effects of placebo. This phase also helped familiarize subjects with, and trained them in the use of, various scales and questionnaires that measure subjective effects.
The comparators in an abuse potential study are typically controlled substances from the same pharmacologic class as the investigational drug. However, Compound (1C) is a novel drug class for which no controlled substances/drugs of abuse are available for comparison. […] There was no evidence of other effects of interest to abusers, such as perceptual disturbances or stimulation. […] Placebo control was used to establish the frequency and magnitude of changes in clinical endpoints that may occur in the absence of active treatment as well as to minimize subject and investigator bias.
In all of the study phases, treatments were blinded to the greatest extent possible to reduce potential bias during data collection and evaluation of clinical endpoints. Because study subjects were recreational drug users and familiar with the effects of the drug substances being studied, the double-dummy technique was be used in the Treatment Phase to maintain blinding. Subjects received tablets orally in each treatment period. Placebo was matched in size and shape to each of the tablet types, and a method to blind subjects will be employed.
For each phase, subjects received treatments according to the randomization schema. During the Treatment Phase, subjects were be randomized to 1 of sequences in a 6×6 Williams square crossover design.
Compound (1C) was administered orally in an immediate release tablet comprising the pharmaceutically acceptable excipients croscarmellose sodium (FMC Health and Nutrition, Philadelphia, Pa.), hydroxypropylcellulose (Ashland Inc., Covington, Ky.), microcrystalline cellulose (Dupont, Chicago, Ill.), mannitol (SPI Pharma, Wilmington, Del.), magnesium stearate (PlusPharma Inc., Vista, Calif.), and sodium lauryl sulfate (BASF Corp, Upper St. Clair, Pa.). […] Placebo tablets matching the Compound (1C) tablets were orally administered in the same way. The placebo tablets comprised the above-described pharmaceutically acceptable excipients but with no Compound (1C). Triazolam was administered at a dose of 0.5 or 1 mg. Trial endpoints are provided below.
Peak Maximum Effect (Emax) for Drug Liking (“at this moment”) visual analog scale (“VAS”), was measured by study participants providing a score on a 100 point bipolar scale with 100 as strong liking, 50 as the neutral point of neither liking nor disliking, and 0 as strong disliking. […]

[2] = test system: healthy, non-dependent, recreational sedative users; test: Human abuse potential study, adverse events and tolerability; type: in vivo; settings: for Amnesia / Ataxia / Diplopia / Dizziness / Euphoric mood / Headache / Hiccups / Nausea / Somnolence / Vision blurred: N = 50
Experimental: Adverse events were coded to MedDRA terms. Data for AEs were analyzed using the treatment-emergent signs and symptoms (TESS) philosophy. Treatment-emergent signs and symptoms are defined as AEs that: • Emerge during treatment, having been absent at pretreatment; or • Reemerge during treatment, having been present at pretreatment but stopped prior to treatment; or • Worsen in intensity during treatment relative to the pretreatment state, when the AE is continuous.
Subjects were counted only once in the incidence count for a specific MedDRA Preferred Term, although a MedDRA Preferred Term might be reported more than once for a particular subject. Separate summaries will be provided for Treatment-emergent AEs (“TEAEs”) by maximum intensity (mild, moderate, severe) and relationship (yes, no) to study drug. A TEAE was considered related to study drug if the investigator reported the event to be “definitely, probably, possibly, or unlikely” related to treatment on the CRF.

For `O=C(O)c1nc2ccccc2n([C@H]2C[C@H]3CCC[C@@H](C2)N3C2CC3CCCC(C3)C2)c1=O` (stereo partly drawn) [Compound (1C)], the “Drug Liking VAS - EMAX Diff from Placebo LSMean” value (“Drug Liking VAS - EMAX Diff” for short) ([1]; 1 mg) was 3.0 points, the “Drug liking compared with Triazolam 0.5 and 1 mg” value ([1]; 1 mg) was “statistically smaller; also recorded: statistically less; also recorded: (1C) 1 mg was significantly lower than” and the “Drug liking compared with placebo (words)” value ([1]; 1 mg) was “not significantly greater than placebo; also recorded: placebo was similar to placebo (upper bound”. For the same molecule, the “Drug Liking VAS - EMAX LSMean” value ([1]; 1 mg single oral dose) was 58.1, the “Drug Liking VAS - EMAX Diff” value ([1]; 6 mg) was 17.7 points and the “Drug liking compared with Triazolam 0.5 and 1 mg” value ([1]; 6 mg) was “not statistically different”. For the same molecule, the “Drug liking compared with placebo (words)” value ([1]; 6 mg) was “greater drug liking than placebo; also recorded: significantly greater”, the “Drug Liking VAS - EMAX LSMean” value ([1]; 6 mg single oral dose) was 72.82 and the “Drug Liking VAS - EMAX Diff” value ([1]; 10 mg) was 21.2 points. The “Drug liking compared with Triazolam 0.5 and 1 mg” value ([1]; 10 mg) was “not statistically different”, the “Drug liking compared with placebo (words)” value ([1]; 10 mg) was “greater drug liking than placebo; also recorded: significantly greater” and the “Drug Liking VAS - EMAX LSMean” value ([1]; 10 mg single oral dose) was 76.4. For the same molecule, the “Drug Liking VAS - EMAX, Triazolam 0.5 mg - Cmpd. (1C) LSMean” value (“Drug Liking VAS - EMAX, Triazolam 0.5 mg” below) ([1]; Cmpd. (1C) 1 mg) was 17.4, the “Drug Liking VAS - EMAX, Triazolam 1 mg - Cmpd. (1C) LSMean” value (“Drug Liking VAS - EMAX, Triazolam 1 mg” below) ([1]; Cmpd. (1C) 1 mg) was 20.5 and the “Drug Liking VAS - EMAX, Triazolam 0.5 mg” value ([1]; Cmpd. (1C) 6 mg) was 2.7. For the same molecule, the “Drug Liking VAS - EMAX, Triazolam 1 mg” value ([1]; Cmpd. (1C) 6 mg) was 5.8, the “Drug Liking VAS - EMAX, Triazolam 0.5 mg” value ([1]; Cmpd. (1C) 10 mg) was −0.8 and the “Drug Liking VAS - EMAX, Triazolam 1 mg” value ([1]; Cmpd. (1C) 10 mg) was 2.3. For the same molecule, the “AE profile compared with triazolam” value ([2]; 1 mg) was “more preferable AE profile than triazolam”, the Amnesia ([2]; 1 mg) was 0 n (%) and the Ataxia ([2]; 1 mg) was 1 (2) n (%). For the same molecule, the Diplopia ([2]; 1 mg) was 0 n (%), the Dizziness ([2]; 1 mg) was 2 (4) n (%) and the Euphoric mood ([2]; 1 mg) was 0 n (%). The Headache ([2]; 1 mg) was 5 (10) n (%), the Hiccups ([2]; 1 mg) was 0 n (%) and the Nausea ([2]; 1 mg) was 1 (2) n (%). The Somnolence ([2]; 1 mg) was 20 (40) n (%), the Vision blurred ([2]; 1 mg) was 0 n (%) and the “AE profile compared with triazolam” value ([2]; 6 mg) was “AE profile than triazolam, and Compound (1C) at 6 and 10 mg doses had similar profiles as triazolam”. The “certain AE results (ataxia, hiccups, amnesia, diplopia) compared with triazolam at therapeutic doses” value ([2]; 6 mg (supratherapeutic dose)) was “superior to triazolam”, the Amnesia ([2]; 6 mg) was 0 n (%) and the Ataxia ([2]; 6 mg) was 7 (14) n (%). For the same molecule, the Diplopia ([2]; 6 mg) was 0 n (%), the Dizziness ([2]; 6 mg) was 3 (6) n (%) and the Euphoric mood ([2]; 6 mg) was 1 (2) n (%). For the same molecule, the Headache ([2]; 6 mg) was 2 (4) n (%), the Hiccups ([2]; 6 mg) was 0 n (%) and the Nausea ([2]; 6 mg) was 2 (4) n (%). The Somnolence ([2]; 6 mg) was 45 (90) n (%), the Vision blurred ([2]; 6 mg) was 2 (4) n (%) and the “AE profile compared with triazolam” value ([2]; 10 mg) was “AE profile than triazolam, and Compound (1C) at 6 and 10 mg doses had similar profiles as triazolam”. The “certain AE results (ataxia, hiccups, amnesia, diplopia) compared with triazolam at therapeutic doses” value ([2]; 10 mg (supratherapeutic dose)) was “superior to triazolam”, the Amnesia ([2]; 10 mg) was 0 n (%) and the Ataxia ([2]; 10 mg) was 13 (26) n (%). For the same molecule, the Diplopia ([2]; 10 mg) was 2 (4) n (%), the Dizziness ([2]; 10 mg) was 5 (10) n (%) and the Euphoric mood ([2]; 10 mg) was 1 (2) n (%). The Headache ([2]; 10 mg) was 2 (4) n (%), the Hiccups ([2]; 10 mg) was 0 n (%) and the Nausea ([2]; 10 mg) was 2 (4) n (%). For the same molecule, the Somnolence ([2]; 10 mg) was 47 (94) n (%), the Vision blurred ([2]; 10 mg) was 3 (6) n (%) and the “safety and tolerability” value ([2]; doses 1, 6 and 10 mg) was “well tolerated”.
